From US20190060239A1, “Technology for the Preparation of Microparticles” (Ansun Biopharma, Inc., priority 2007, published 2019)

Legend:
[1] = Microsphere quality score by light microscopy (scoring system of Table 13); assay type: physicochemical; conditions: for Microsphere Quality: compound 2 mg/ml
Description: For each of the compounds listed in A-D above, and for DAS181, cocktail solutions containing 2 mg/ml of compound dissolved in an aqueous solvent and various counterions, antisolvents and pH, as listed below, were prepared in a 96-well microtiter plate (0.1 ml cocktail/well) at room temperature. Control solutions contained either solvent or antisolvent alone, with or without the counterion. Cocktails were cooled by placing in a freezer. The chilled plates were transferred onto pre-chilled (−45° C.) shelves of a Millrock Lab Series Lyophilizer, and the vacuum was applied. The frozen cocktail solutions were allowed to lyophilize for 16 hours.
The lyophilized powders from the bottoms of the wells were transferred onto glass slides and analyzed by light microscopy for appearance. The quality of the product microspheres was scored based on the uniformity of the microspheres, the absence of undesirable non-microsphere particles (glass-like crystalline forms), and the absence of aggregates.
Arginine was used as counterion and isopropanol was used as antisolvent. Concentrations of each of the cocktail components—the compound, the counterion and the antisolvent—were varied as shown below in Table 15, and the effect on microsphere quality assessed.
Experiments were performed to evaluate the effect of antisolvent and counterion concentration variation on the formation of microspheres. The peptides leuprolide and somatostatin, and the antibiotics vancomycin and tobramycin, were tested under a variety of conditions for forming microspheres. Samples were analyzed in 96-well plates as described in the previous Examples.
The experiments were performed using PGI2 and an analog of PGI2, Ciprostene, at a concentration of 2 mg/ml. Cocktail solutions were mixed at room temperature, then cooled by placing in a freezer. The chilled plates were transferred onto pre-chilled (−45° C.) shelves of a Millrock Lab Series Lyophilizer, and the vacuum was applied. The frozen cocktail solutions were allowed to lyophilize for 16 hours.
Because the resulting prostaglandin microspheres are hygroscopic, upon microsphere initiation, the humidity was maintained at low levels during the experiments, using a nitrogen gas tank attached to the backfill system on the lyophilizer. Each of the reaction tubes was flushed with N2. In addition, the backfill valve on the lyophilizer was left open to continually flush a low humidity atmosphere over the samples. The microscope used to visualize the resulting microspheres was contained within a plastic bag that was continually purged with dry N2. Sample tubes were placed under the bag to equilibrate for approximately 30 seconds, before opening and spreading onto the glass slide.
The compound/counterion/antisolvent conditions were as follows:
Experiments were performed with 200 μl of each of the above cocktail solutions in a 2 ml lyophilization bottle (first flash freeze condition), and 25 μl of each of the above cocktail solutions in a PCR tube (second flash freeze condition). The samples in the lyophilization bottles took approximately 15 seconds to freeze. The samples in the PCR tubes took approximately 3 seconds or less to freeze.
The cocktails in the 96-well plates were cooled by placing in a freezer. The chilled plates were transferred onto pre-chilled (−45° C.) shelves of a Millrock Lab Series Lyophilizer, and a vacuum was applied. The frozen cocktail solutions were allowed to lyophilize for 16 hours.
The lyophilized powders from the bottoms of the wells were transferred onto glass slides and analyzed by light microscopy for appearance.

[2] = cited from earlier work
[3] = Microsphere formation, size and appearance by light microscopy; assay type: physicochemical; conditions: 2 mg/ml paclitaxel; isopropanol, t-butanol or DMSO with 2 mM Na-citrate buffer pH 5.0
[4] = Bombuwala et. al., Beilstein J. Org. Chem. 2006, 2:13; cited from earlier work

SMILES | Microsphere Quality ([1]; 2 mM Arginine, pH 9, 20% n-propanol, 0% t-butanol) | Microsphere Quality ([1]; 2 mM Arginine, pH 9, 20% n-propanol, 30% t-butanol) | Microsphere Quality ([1]; 2 mM PEI, pH 10.75, 30% n-propanol, 0% t-butanol) | Microsphere Quality ([1]; 2 mM TEA, pH 11, 20% n-propanol, 0% t-butanol) | Microsphere Quality ([1]; 2 mM TEA, pH 11, 20% n-propanol, 5% t-butanol) | Microsphere Quality ([1]; 2 mM TEA, pH 11, 20% n-propanol, 55% t-butanol) | Microsphere Quality ([1]; 2 mM TEA, pH 11, 20% n-propanol, 70% t-butanol) | Microsphere Quality ([1]; 2 mM TEA, pH 11, 30% n-propanol, 0% t-butanol) | solubility in water / aqueous solutions [2] | API half life ([2]; at physiological pH) | organic solvent concentration at which paclitaxel precipitated [3] [%] | appearance after flash freeze ([1]; both flash freeze conditions, Paclitaxel/citrate pH 5.0/90% t-butanol) | log P (log of the octanol/water partition coefficient) [4]
CCCCC[C@H](O)/C=C/[C@H]1[C@H](O)C[C@]2(C)C/C(=C\CCCC(=O)O)C[C@H]12 [Ciprostene] | 7/8 | 6/7 | 6/7 | 4/5 | 8/7 | 6/7 | 5/6 | 3/4 | not highly soluble in aqueous solutions | – | – | – | –
CCCCC[C@H](O)/C=C/[C@@H]1[C@H]2C/C(=C/CCCC(=O)O)O[C@H]2C[C@H]1O [PGI2] | – | – | – | – | – | – | – | – | higher solubility in water | on the order of minutes | – | – | –
CC(=O)O[C@H]1C(=O)[C@@]2(C)[C@H]([C@H](OC(=O)c3ccccc3)[C@]3(O)C[C@H](OC(=O)[C@H](O)[C@@H](NC(=O)c4ccccc4)c4ccccc4)C(C)=C1C3(C)C)[C@]1(OC(C)=O)CO[C@@H]1C[C@@H]2O [Paclitaxel] | – | – | – | – | – | – | – | – | – | – | ≤ 25 | mostly crystalline | higher than 3
